# From patent US20120172313A1, “TREATMENT OF PROLIFERATIVE DISEASES” (priority 2010, published 2012)
# Bridges are numbered along the chain shown (N, C = ends). Where no end group is shown, it is not given here.
# What was measured:
# [1] = system: human red blood cells; test: Red blood cell (RBC) lysis; conditions: for haemolytic activity: concentrations up to 100 μM
# Method: Following ficoll-paque separation, RBCs were collected and washed with 1×PBS and pelleted at 1000×g for 10 min. RBCs were diluted 1 in 10 for treatment with increasing concentrations (0-100 μM) of defensins and incubated over-night under a humidified atmosphere of 5% CO2/95% air. […] The degree of red blood cell lysis was measured as absorbance at 412 nm.
# [2] = system: human coronary artery smooth muscle cells (CASMC) and umbilical vein endothelial cells (HUVEC); conditions: read-out: IC50, viability of normal primary cells (MTT), 48 h
# Method: Tumour cells were seeded in a 96-well microtitre plate (50 μL/well) at an optimum density determined in the cell optimisation assay as above. Background control wells (n=8) containing the same volume of complete culture medium were included in the assay. The microtitre plate was incubated overnight at 37° C., prior to the addition of proteins at various concentrations and the plate was incubated for a further 48 h. The cell viability 3-(4,5-dimethyl-2-thiazolyl)-2,5-diphenyl-2H-tetrazolium bromide (MTT, Sigma-Aldrich) assay was carried out as follows: the MTT solution (1 mg/mL) was added to each well (100 μL) and the plate incubated for 2-3 h at 37° C. under a humidified atmosphere containing 5% CO2/95% air. Subsequently, for adherent cell lines, the media was removed and replaced with dimethyl sulfoxide (100 μL, DMSO, Sigma-Aldrich), and placed on a shaker for 5 min to dissolve the tetrazolium salts. In the case of suspension cells, prior to the addition of DMSO the cells are spun at 1500 rpm for 5 min. Absorbance of each well was measured at 570 nm and the IC50 values (the protein concentration to inhibit 50% of cell growth) were determined using the Origin Software Program. […]
# [3] = system: Fusarium oxysporum f. sp. vasinfectum; conditions: read-out: IC50, growth of Fusarium oxysporum f. sp. vasinfectum
# Method: Permeabilization of fungal membranes has also been reported for some plant defensins (Lay and Anderson, 2005). […] These five fungal species are all members of the ascomycete phylum and are distributed among three classes in the subphylum pezizomycotiria. These fungi are agronomically important fungal pathogens.
# SP Sepharose elution fractions containing rNaD1 were loaded onto an analytical C8 RP-HPLC column and eluted using a 40 min linear gradient (0-100% buffer B). Proteins were detected by absorbance at 215 nm. […] Graph represents data from three separate experiments performed in quadruplicate. Error bars represent standard error of the mean.
# [4] = system: human U937 myelomonocytic cells; test: PI uptake flow cytometry cell permeabilisation assay, U937; type: cell-based; conditions: for PI+ U937 cells (mean ± SEM): 10 μM, absence of serum, Example 9, cell only control 27.03±0.52
# Method: (§1) Unless otherwise stated, cells were re-suspended at a cell concentration of 4×10^5 cells/mL in complete culture RPMI-1640 medium supplemented with 10% FBS, 100 U/mL penicillin and 100 μg/mL streptomycin, and added to either a V-bottom 96-well plate or microfuge tubes. Cells were kept at 37° C., unless otherwise stated, during protein addition (5 μL) at various concentrations or the set concentration of 10 μM. Typically, cells were mixed with the protein of interest and incubated at 37° C. for 30 min. In certain experiments, cells were also incubated at either 4° C. or 37° C. for 2-60 min prior to flow cytometry analysis. Cells were added to an equal volume of complete culture medium containing 2 μg/mL propidium iodide (PI, Annexin V-FITC Apoptosis Detection Kit, Invitrogen) and analysed immediately by flow cytometry using a FACSCanto cell sorter (Becton Dickson, Fanklin Lakes, N.J.) and Cell Quest Pro Software (Becton Dickson). Typically, 5000-10000 events per sample were collected and the resultant data were analysed using FlowJo software (Tree Star, Ashland, Oreg.). Cells were gated appropriately based on forward scatter (FSC) and side scatter (SSC), with the viable cells determined by their ability to exclude PI. For analysis purposes, all data was standardised relative to control (normal cell % ranged from approx. 0-7%).
# (§2) To determine whether NaD1 kills tumour cells in a similar manner to fungus, the ability of NaD1 to permeabilise tumour cells was assessed using two different approaches. The first used a bioluminescence assay to measure the release of intracellular ATP.
# (§3) The first used a bioluminescence assay to measure the release of intracellular ATP. 4×10^4 U937 (human myelomonocytic tumour cell line) were treated with increasing concentrations of PhD1A or rTPP3 (0-20-μM) and ATP release measured at intervals of 30 seconds for a total of 30 min by determining absorbance at 562 nm. The second approach used flow cytometry to determine the uptake of the fluorescent dye propidium iodide (PI) (2 μg/mL) by U937 (4×10^5/mL) following the treatment of cells with increasing concentrations of PhD1A (0 to 50 μM) or rTPP3 (0 to 40 μM) for 30 min.
# (§4) The percentage of PI^+ cells was then determined by flow cytometry.
# (§5) The first used a bioluminescence assay to measure the release of intracellular ATP. 4×10^4U937 were treated with 10 μM of each defensin and ATP release measured at intervals of 30 seconds for a total of 30 min by determining absorbance at 562 nm. The second approach used flow cytometry to determine the uptake of the fluorescent dye propidium iodide (PI) (2 μg/mL) by U937 (4×10^5/mL) following the treatment of cells with […] of each defensin for 30 min.
# [5] = Lipid-coated membrane strip binding assay (Echelon lipid strips); conditions: 0.12 μM, overnight, 4° C.
# Method: Membrane Lipid Strips™, PIP Strips™ and Sphingo Strips™ (Echelon Biosciences, Salt Lake City, Utah) were incubated with PBS/3% BSA for 1-2 h at RT to block non-specific binding. The membrane strips were then incubated with defensins (0.12 μM) diluted in PBS/1% BSA overnight at 4° C., prior to thorough washing for 60 min at RT with PBS/0.1% Tween-20. […] After each antibody incubation, the membrane strips were washed extensively for 60 min at RT with PBS/0.1% Tween-20. Chemiluminescence was detected using the enhanced chemiluminescence (ECL) western blotting reagent (GE Healthcare BioSciences, NSW Australia) and exposed to Hyperfilm (GE Healthcare BioSciences, NSW, Australia) and developed using an Xomat (All-Pro-Imaging).
# Densitometry analysis was performed on images obtained from lipid strips using ImageJ (National Institute of Health, Bethesda, Md.). Briefly, circles of equivalent size were traced around areas of interest. A background circle of equal size was also placed in the area on the membrane where there is no lipid and set as the background. The areas of interest were quantified as the average pixel intensity subtracted from the background.
# These strips are spotted with 100 pmole of each lipid in a biologically active form.
# Further investigation of the interaction of Solanaceae class I and class II defensins with cellular lipids was carried out by solid-state lipid binding assays using Echelon™ PIP Strips. […] Defensin binding was quantitated by densitometry on the developed lipid strips.
# [6] = system: U937 human myelomonocytic cells; test: ATP bioluminescence (ATP release) assay, U937; type: cell-based; conditions: read over 30 min
# Method: ATP bioluminescence assay (Roche Diagnostics, NSW Australia) was used to quantitate the release of ATP by permeabilised tumour cells. The Luciferase reagent was dissolved as per manufacturer's instructions and incubated for 5 min at 4° C. Briefly, cells were re-suspended at a concentration of 1×10^6 cells/mL in 1×PBS/0.1% BSA and added (40 μL/well) to the Luciferase reagent (50 μL/well) to a blank microtitre plate (Nunc™) containing 10 μL of protein samples. Simultaneously, using a multichannel pipette, the mixture was added (90 μL/well) and samples were immediately read on a microtitre plate reader at 562 nm for 30 min with readings taken at 30 s intervals. The data were analysed by SoftMaxPro 4.0 software (Molecular Devices Company).
# as §2, §3, §5
# [7] = system: U937 cells; test: PI uptake permeabilisation assay in the presence of serum; type: cell-based, human; conditions: for PI+ U937 cells: 10 μM defensin; for activity on tumour cells in the presence of serum: up to 40% serum
# Method: as §1, §4
# To assess the ability of PhD1A or rTPP3 to permeabilise tumour cells in the presence of serum, the PI-uptake flow cytometry assay was utilised as described in Example 2 with the following modifications: 4×10^5/mL U937 cells were incubated with […] PhD1A or rTPP3 in the presence of increasing concentrations of foetal calf serum (FCS) (0 to 40%) for 60 min followed by addition of 2 μg/mL PI. The percentage of PI^+ cells was then determined by flow cytometry.
# [8] = Acute oral toxicity (OECD Test Guideline 423); type: in vivo, C57BL/6 mice
# Description: This study was based on OECD Test Guideline 423 (OECD [Organisation for Economic Co-operation and Development]. 2001. Guideline 423: Acute Oral Toxicity—Acute Toxic Class Method. Paris: OECD).
# Healthy female C57BL/6 mice derived from the same litter were obtained from either the Central Animal House at La Trobe University (Bundoora Campus) or from Monash Animal Services. The animals were identified by ear punch and kept three per cage during the study. The animals will be housed and maintained in groups of three in cages as per standard animal house conditions at La Trobe University.
# On the day of dosing, the test mice were weighed and fasted for 4 h prior to dose administration. Just prior to dosing, the mice were reweighed. […] The protein solution was administered by oral gavage using a round-tipped canula needle. Feed was replaced 1 h after dosing. The mice received standard rodent diet and water ad libitum.
# The mice were observed hourly for 4 h after dosing on day 1 and at least twice daily thereafter until scheduled killing on day 14. Signs of gross toxicity, adverse pharmacologic effects and behavioural changes were assessed and recorded daily as was the food and water consumption. The mice were reweighed at days 7 or 8 and 14. On the last day of the study (day 14), the mice were killed by inhalation of carbon dioxide and necropsied. All the mice received a gross pathological examination. The weights of the following organs were recorded: brain, heart, liver, lungs, kidneys, gastrointestinal tract, spleen and thymus. Subsequently, the samples were fixed in 4% (v/v) paraformaldehyde until paraffin embedding, sectioning and histopathological examination by the Australian Phenomics Network, University of Melbourne node. The gastrointestinal tract was divided into the following sections: stomach, duodenum, jejunum, ileum, cecum and colon.
# [9] = system: Sclerotinia sclerotiorum; conditions: 100 μg/mL; cited from earlier work
# [10] = system: Phoma betae; conditions: 1 μg/mL; cited from earlier work
# [11] = Example 11, 30 min at 37° C., concentration printed 'at 100' (10 μM in the same block)
# [12] = oral gavage, 20, 50 or 300 mg NaD1/kg body weight, 14 days
substance,measurement,setting,value
"ARECKTESNTFPGICITKPPCRKACISEKFTDGHCSKILRRCLCTKPC (disulfide 4-48, 15-35, 21-42, 25-44) [rNaD1]",haemolytic activity,[1],no ability to lyse RBCs
same,haemolytic activity,[1]; listed as recombinant NaD1,no haemolytic activity
same,IC50,[2],7.5 to 12 µM
same,IC50,[3],~1.6 µM
NsD1: Nicotiana suaveolens class II defensin; mature domain SEQ ID NO: 22 (KDCKRESNTFPGICITKPPCRKACIREKFTDGHCSKILRRCLCTKPC; listed as Nicotiana suaveolens),PI+ U937 cells,[4]; [11],~60%
same,phospholipid binding preference (PIP strips),[5],general preference of binding to phosphoinositides
same,release of ATP from U937 cells,[6],release of ATP in a time-dependent and concentration-dependent manner
NsD2: Nicotiana suaveolens class II defensin; mature domain SEQ ID NO: 26 (KDCKRESNTFPGICITKLPCRRACISEKFADGHCSKILRRCLCTKPC; listed as Nicotiana suaveolens),PI+ U937 cells,[4]; [11],~60%
same,phospholipid binding preference (PIP strips),[5],general preference of binding to phosphoinositides
same,release of ATP from U937 cells,[6],release of ATP in a time-dependent and concentration-dependent manner
PhD1A: Petunia hybrida Class II defensin; mature domain SEQ ID NO: 18 (ATCKAECPTWDGICINKGPCVKCCKAQPEKFTDGHCSKVLRRCLCTKPC; listed as Petunia hybrida),PI+ U937 cells,"[4]; 6.25 μM, 30 min, 37° C.",~35%
same,PI+ U937 cells (mean ± SEM),[4],57.07±2.76%
same,PI+ U937 cells,"[4]; 50 μM, 30 min, 37° C.",~90%
same,binding to phosphatidic acid (PA),[5],bound strongly
same,phospholipid binding preference (PIP strips),[5],general preference of binding to phosphoinositides
same,release of ATP from U937 cells,[6],release of ATP in a time-dependent and concentration-dependent manner
same,PI+ U937 cells,[7]; 0% FCS,90%
same,PI+ U937 cells,[7]; 40% FCS,40%
same,activity on tumour cells in the presence of serum,[7],retained the ability to permeabilise U937 cells
"RECKTESNTFPGICITKPPCRKACISEKFTDGHCSKILRRCLCTKPC (disulfide 3-47, 14-34, 20-41, 24-43) [NaD1]",adverse effects on mice,[8]; administered orally at up to 300 mg NaD1/kg body weight,no adverse effects
same,histopathology of organs,[8]; highest dose of 300 mg NaD1/kg body weight,possible slight irritation to the stomach epithelium
same,body weight,[8]; [12],no treatment related effects on body weight
same,clinical signs,[8]; [12],"no signs of gross toxicity, adverse pharmacologic effects or behavioural changes"
same,survival,[8]; [12],survived to termination of the study
same,histopathology of organs,"[8]; oral gavage, doses below 300 mg NaD1/kg body weight","No pathologies, attributable to protein administration"
same,RBC lysis (relative to water = 100% lysis),"[1]; 100 μM, 16 h, 37° C.",~50%
same,IC50,[2],7.5 to 12 µM
same,IC50,[3],~1 µM
"Rs-AFP2: antifungal plant defensin from radish seeds (QKLCQRPSGTWSGVCGNNNACKNQCIRLEKARHGSCNYVFPAHKCICYFPC; UniProt P30230 30-80, looked up)",activity against Sclerotinia sclerotiorum,[9],ineffective
same,growth of Phoma betae,[10],inhibits the growth
"rTPP3: Solanum lycopersicum (tomato) Class II defensin TPP3, recombinant (SEQ ID NO: 12) (AQQICKAPSQTFPGLCFMDSSCRKYCIKEKFTGGHCSKLQRKCLCTKPC; listed as Solanum lycopersicum)",PI+ U937 cells,"[4]; 5 μM, 30 min, 37° C.",~35%
same,PI+ U937 cells (mean ± SEM),[4],49.97±2.93%
same,PI+ U937 cells,"[4]; 40 μM, 30 min, 37° C.",~90%
same,phospholipid binding preference (PIP strips),[5],general preference of binding to phosphoinositides
same,release of ATP from U937 cells,[6],release of ATP in a time-dependent and concentration-dependent manner
same,retention of permeabilisation activity,[7]; 5-40% FCS,up to 70%
same,activity on tumour cells in the presence of serum,[7],retained the ability to permeabilise U937 cells
